According to publication PMC4366275 (Anesthesiology, 2015):

Target: PDZ1–3 (PDZ123) domains of PSD-95 (Rattus norvegicus, UniProt P31016)
Assay: […]-1H HSQC NMR chemical shift titration
Assay type: binding

Sequence of PDZ1–3 (PDZ123) domains of PSD-95 (P31016 61-393): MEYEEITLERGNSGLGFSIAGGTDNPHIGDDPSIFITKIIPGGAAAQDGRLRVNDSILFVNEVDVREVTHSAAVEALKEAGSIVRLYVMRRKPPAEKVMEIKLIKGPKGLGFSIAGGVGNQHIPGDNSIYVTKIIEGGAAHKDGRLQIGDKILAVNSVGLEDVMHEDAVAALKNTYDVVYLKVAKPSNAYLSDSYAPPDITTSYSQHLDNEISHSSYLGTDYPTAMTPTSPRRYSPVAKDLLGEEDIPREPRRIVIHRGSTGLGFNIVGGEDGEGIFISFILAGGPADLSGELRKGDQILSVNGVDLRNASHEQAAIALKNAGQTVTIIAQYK

Kd: ~3 mM
Compound: FC(F)OC(Cl)C(F)(F)F (stereo not shown) [isoflurane]
